Earlier results, collected in patent US8617618B2, “Topical compositions containing magaldrate” (Difass International S.R.L., priority 2007, dated 2013).

Legend:
[1] = humans, oral intake
gastric pH = conditions: rapid, persistent ability to maintain the gastric pH
[2] = single and repeated oral doses
[3] = in water and alcohol; white, crystalline powder

- solubility [3]: insoluble
Substance: Magaldrate
- absorption of aluminium or magnesium [1]: not followed by any significant absorption
- gastric pH maintained (gastric pH): 3-5
- toxicity [2]: almost non-toxic
